Settings: from CCn1c(-c2cccnc2[C@H](C)OC)c(CC(C)(C)CO)c2cc(C3=CCCN(CC(NC(=O)OC(C)(C)C)C(=O)N4CCC[C@@H](C(=O)O)N4)C3)ccc21; ester bond; 18-membered ring; EDCI.HCl/HOBt/DIPEA; DCM; 7.1 mM; 30.0 °C; 16.0 h

CCn1c(-c2cccnc2[C@H](C)OC)c2c3cc(ccc31)C1=CCCN(C1)CC(NC(=O)OC(C)(C)C)C(=O)N1CCC[C@H](N1)C(=O)OCC(C)(C)C2 (stereo partly shown)
ring closure, isolated yield: 40%

From US12202845
